{
  "source": "patent US20230071222A1",
  "about": "“METHOD FOR PREPARING FIBROSIS-ENCAPSULATED TUMOROID, AND USE THEREOF” (INDUSTRY-ACADEMIC COOPERATION FOUNDATION, YONSEI UNIVERSITY, priority 2020, published 2023)",
  "system": "fibrosis-encapsulated tumoroid (FET)",
  "assay": "Anticancer drug resistance test of fibrosis-encapsulated tumoroid (cell viability measurement)",
  "format": "cell-based, human",
  "details": "cisplatin, 100 µM; fibrosis-encapsulated tumoroid (FET) compared to the simple tumoroid (tumor only); FIG. 10B",
  "description": "The present inventors performed a drug resistance test in order to evaluate whether it was possible to select drugs, which can be effective in the clinical stage, using the fibrosis-encapsulated tumoroid which is a solid cancer tissue analogue produced by the methods of Examples 1 to 4 (see FIGS. 10A and 10B). […] The drug test was conducted through cell viability measurement. The cell viability of each of the group containing the anticancer drug and the control group not containing the anticancer drug was measured after replacing the medium with maintenance medium. […] The cell viability of the solid cancer tissue analogue was measured using Promega’s CellTiter-Glo luminescent cell viability assay as another measurement method, and the death of cancer cells by the anticancer drug could be indirectly confirmed by comparison with the control group. […] The fibrosis-encapsulated tumoroid produced as described above mimicked a series of processes in which the anticancer agent passes sequentially through the blood vessel wall and fibrotic tissue and reaches cancer tissue, in the same way as in the human body. Thus, it is preferable to finally produce the eFET and conduct an anticancer drug test using the eFET, but only the FET may be selectively used in order to reduce cost or time. […]",
  "data": [
    {"smiles": "N.N.[Cl][Pt][Cl]", "note": "[cisplatin]", "values": [
      {"measurement": "resistance to the anticancer drug (cell viability)", "value": "statistically significant resistance"}
    ]}
  ]
}
